Measurements as given in patent US9289400B2, “D3 dopamine receptor agonists to treat dyskinesia in parkinson's disease” (priority 2010, dated 2016).
“And” between values parts separate entries of the source, which are not always exact repeats. Equal entries are not always repeated. Marks after values point to notes of the source that are not given here.

What was measured:
Format in all cases: cell-based
[1] = target: T1, D2S dopamine receptor (Homo sapiens (Human), UniProt P14416); assay: Adenylyl cyclase inhibition (forskolin-induced cAMP) in AtT-20 cells stably expressing D2S; settings: for EC50: AtT-20 cells; for Adenylyl cyclase inhibition: agonist type: versus full agonist quinpirole
T1 sequence (P14416 other isoform, or with tags, fused parts or gaps): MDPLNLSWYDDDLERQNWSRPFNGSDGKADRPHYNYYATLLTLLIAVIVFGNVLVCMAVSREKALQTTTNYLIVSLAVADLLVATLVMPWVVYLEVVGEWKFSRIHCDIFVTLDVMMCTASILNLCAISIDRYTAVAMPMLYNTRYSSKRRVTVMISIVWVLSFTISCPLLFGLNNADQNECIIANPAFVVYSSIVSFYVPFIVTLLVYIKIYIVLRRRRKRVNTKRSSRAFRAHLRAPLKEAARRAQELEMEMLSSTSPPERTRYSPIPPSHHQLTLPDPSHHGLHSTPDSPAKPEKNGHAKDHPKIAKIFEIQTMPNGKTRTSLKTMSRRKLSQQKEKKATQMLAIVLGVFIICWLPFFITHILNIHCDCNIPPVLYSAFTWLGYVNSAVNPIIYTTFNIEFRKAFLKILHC
Method: In the second functional assay, the ability of D2-like dopamine receptors to inhibit adenylyl cyclase activity is assessed. The ability of the lead compound to dose-dependently decrease forskolin-induced cAMP levels is measured. The IC50 values for each receptor subtype is determined by fitting the data points using the Hill equation. Previously, the EC50 and IC50 values for dopamine and quinpirole has been determined in these cell lines in both functional assays.
(§1) AtT-20 mouse pituitary cells were grown in Ham's F10 medium with 5% FBS, 10% heat-inactivated horse serum, 2 mM glutamine and 50 μg/ml gentamicin (Invitrogen, Carlsbad, Calif.). AtT-20 cells stabling expressing the human D2S, D2L, D3, and D4.2 and receptor were maintained in the above F10 culture media supplemented with 500 μg/ml G418 (Invitrogen). For electrophysiological characterization, cells were plated onto glass coverslips coated with 40 μg/ml poly L-lysine (Sigma-Aldrich). The generation and characterization of the AtT-20 cells stably expressing various human dopamine receptors have been previously reported (Kuzhikandathil & Oxford, 2000, J. Gen. Physiol. 115:697-706; Kuzhikandathil et al., 1998, Mol. Cell. Neurosci. 12:390-402; Kuzhikandathil & Bartoszyk, 2006, Neuropharm. 51:873-884; Westrich & Kuzhikandathil, 2007, Biochim. Biophys. Acta-MCR 1773:1747-1758; Kuzhikandathil et al., 2004, Mol. Cell. Neurosci. 26:144-155; Westrich et al., 2010, Biochem. Pharmacol. 79:897-907).
Cyclic AMP (cAMP) levels were assessed using the cAMP Biotrak Enzymeimmunoassay (EIA) kit (GE Healthcare, Piscataway, N.J., USA) as described previously (Kuzhikandathil & Bartoszyk, 2006, Neuropharm. 51:873-884). The cAMP levels in each treated sample were assayed in triplicate and the entire experiment repeated three independent times.
(§2) To compare the functional effects of the new class of D3 receptor agonists, PBZI (Table 2) and ES609 (Table 3) were tested on AtT-20 cells stably expressing human D3, D2S, D2L or D4.2. Functional efficacy was determined by assessing the ability of PBZI and ES609 to inhibit adenylyl cyclase or activate GIRK channels coupled to these “D2-like” dopamine receptors. The EC50 values of PBZI and ES609 for inhibiting adenylyl cyclase and activating GIRK channels were in the range of 0.2 nM to 30 nM for D3 receptors.

[2] = target: T1, D2S dopamine receptor; assay: GIRK channel activation, whole cell voltage clamp, AtT-20 cells stably expressing D2S; settings: for GIRK channel activation: agonist type: versus full agonist quinpirole
Method: (§3) The activation of the GIRK channels was measured electrophysiologically using whole cell voltage clamp recording (Kuzhikandathil et al., 2004, Mol. Cell. Neurosci. 26:144-155). The GIRK channel responses elicited with new ligands were compared to quinpirole, a classical full agonist of D2, D3 and D4 dopamine receptors. The adenylyl cyclase inhibition was determined using a commercially available ELISA assay (Westrich & Kuzhikandathil, 2007, Biochim. Biophys. Acta-Mol. Cell. Res. 1773:1747-1758).
In the first assay, whole cell voltage clamp recording is used to measure GIRK response to increasing concentrations of the lead compound (0.01 nM to 3,000 nM dose range). The EC50 values for each receptor subtype is determined by fitting the data points using the Hill equation.
as §1
(§4) Agonist-activated currents were measured by the whole-cell patch clamp technique in voltage clamp and current clamp mode as described previously (Kuzhikandathil & Oxford, 2000, J. Gen. Physiol. 115:697-706; Kuzhikandathil et al., 1998, Mol. Cell. Neurosci. 12:390-402; Kuzhikandathil & Bartoszyk, 2006, Neuropharm. 51:873-884; Westrich & Kuzhikandathil, 2007, Biochim. Biophys. Acta-MCR 1773:1747-1758; Kuzhikandathil et al., 2004, Mol. Cell. Neurosci. 26:144-155; Westrich et al., 2010, Biochem. Pharmacol. 79:897-907). Drug solutions were delivered to cells via a multi-barreled micropipette array. The current responses were normalized to the cell capacitance, to account for variation in cell size.
as §2

[3] = target: D3 dopamine receptor (Homo sapiens (Human), UniProt P35462); assay: GIRK channel activation, whole cell voltage clamp, AtT-20 cells stably expressing D3; settings: for specificity of agonist effect (eticlopride pretreatment / parental cells): D2/D3 antagonist eticlopride (100 nM); for GIRK channel activation: agonist type / EC50: D3; for GIRK channel activation: agonist type: versus full agonist quinpirole; for EC50: GIRK channel activation EC50, AtT-20 cells
Chain of D3 dopamine receptor (P35462 other isoform, or with tags, fused parts or gaps): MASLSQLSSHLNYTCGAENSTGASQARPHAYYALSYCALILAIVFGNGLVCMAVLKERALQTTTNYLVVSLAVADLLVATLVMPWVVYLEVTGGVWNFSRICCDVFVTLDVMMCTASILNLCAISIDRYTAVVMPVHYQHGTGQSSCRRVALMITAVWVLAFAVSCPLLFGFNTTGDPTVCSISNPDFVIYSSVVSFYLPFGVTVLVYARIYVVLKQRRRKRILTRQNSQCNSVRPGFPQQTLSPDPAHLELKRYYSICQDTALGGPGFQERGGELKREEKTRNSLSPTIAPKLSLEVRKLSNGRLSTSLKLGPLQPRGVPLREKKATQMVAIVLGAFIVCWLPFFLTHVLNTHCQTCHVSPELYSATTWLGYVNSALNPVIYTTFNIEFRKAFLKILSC
Method: as §3, with “[…].” for “The GIRK channel responses elicited with new ligands were compared to quinpirole, a classical full agonist of D2, D3 and D4 dopamine receptors.”
. In the initial screen, the ability of 300 nM lead compound to activate G-protein coupled inward rectifier potassium (GIRK) channels (FIG. 1) is measured using whole cell voltage clamp recording. The protocol has been previously used for performing whole cell voltage clamp and measuring agonist-induced GIRK response. […]. The EC50 values for each receptor subtype is determined by fitting the data points using the Hill equation.
as §1, with “[…].” for “The generation and characterization of the AtT-20 cells stably expressing various human dopamine receptors have been previously reported (Kuzhikandathil & Oxford, 2000, J. Gen.”
as §4
To compare the functional effects of the new class of D3 receptor agonists, PBZI (Table 2) and ES609 (Table 3) were tested on AtT-20 cells stably expressing human D3, D2S, D2L or D4.2. […]. The EC50 values of PBZI and ES609 for inhibiting adenylyl cyclase and activating GIRK channels were in the range of 0.2 nM to 30 nM for D3 receptors. […]. […]

SMILES: CC(N)CCc1ccccc1Cl (centres unmarked) [ES609]
- Adenylyl cyclase inhibition Ratio of ES609 to quinpirole response (at 300 nM) ([1]; 300 nM): 0.29*
- EC50 [1]: 2.4 nM
- Adenylyl cyclase inhibition: agonist type [1]: partial agonists
- Adenylyl cyclase inhibition: agonist type ([1]; listed as ES0609): Partial
- GIRK current compared with quinpirole-induced current ([2]; 100 nM): significantly less than the quinpirole-induced current
- GIRK channel activation Ratio of ES609 to quinpirole response (at 300 nM) ([2]; 300 nM): 0.30*
- GIRK channel activation: agonist type [2]: partial agonists
- GIRK channel activation: agonist type ([2]; listed as ES0609): Partial
- specificity of agonist effect (eticlopride pretreatment / parental cells) [3]: blocked by pretreatment with the antagonist, eticlopride
- GIRK channel activation Ratio of ES609 to quinpirole response (at 300 nM) ([3]; D3, 300 nM): 0.86
- GIRK channel activation: agonist type [3]: full agonist
- GIRK channel activation: agonist type ([3]; listed as ES0609): Full
- EC50 [3]: 30 nM

SMILES: CCCN1CC[C@@H]2c3cc(O)ccc3CC[C@@H]21 [PBZI, (3aS,9bR)-3-propyl-1,2,3a,4,5,9b-hexahydrobenzo[e]indol-8-ol]
- Adenylyl cyclase inhibition Ratio of PBZI to quinpirole response (at 300 nM) ([1]; 300 nM): 0.29*
- EC50 [1]: 140 nM and > 150 nM
- Adenylyl cyclase inhibition: agonist type [1]: partial agonists
- GIRK channel activation Ratio of PBZI to quinpirole response (at 300 nM) ([2]; 300 nM): 0.48*
- EC50 ([2]; AtT-20 cells): 53 nM
- GIRK channel activation: agonist type [2]: partial agonists
- specificity of agonist effect (eticlopride pretreatment / parental cells) [3]: specific for D3 receptors
- GIRK channel activation Ratio of PBZI to quinpirole response (at 300 nM) ([3]; D3, 300 nM): 1.3
- GIRK channel activation: agonist type [3]: full agonists and full
- EC50 [3]: 30 nM and 29 nM
